# Legend:
# Assay in all cases: spectrophotometric GSH-CDNB conjugation, nonlinear regression
# Format in all cases: biochemical
# Conditions in all cases: GSH fixed 1.0 mM; 50 mM potassium phosphate pH 6.5; 25 °C; read-out: K mCDNB /
# SbGSTU12 = target: T1, SbGSTU12 (Salix babylonica, UniProt A0A4Y5R0C1)
# T1 construct: gene GSTU12; full length, 6xHis-tag (pET30a), E. coli BL21 (DE3), Ni-Sepharose
# From the text: spectrophotometric GSH-CDNB conjugation, nonlinear regression on SbGSTU12
# SbGSTU10 = target: T2, SbGSTU10 (Salix babylonica, UniProt A0A4Y5QZX3)
# T2 construct: gene GSTU10; full length, 6xHis-tag (pET30a), E. coli BL21 (DE3), Ni-Sepharose
# From the text: spectrophotometric GSH-CDNB conjugation, nonlinear regression on SbGSTU10
# SbGSTU13 = target: T3, SbGSTU13 (Salix babylonica, UniProt A0A4Y5R0L5)
# T3 construct: gene GSTU13; full length, 6xHis-tag (pET30a), E. coli BL21 (DE3), Ni-Sepharose
# T3 sequence (A0A4Y5R0L5 1-222): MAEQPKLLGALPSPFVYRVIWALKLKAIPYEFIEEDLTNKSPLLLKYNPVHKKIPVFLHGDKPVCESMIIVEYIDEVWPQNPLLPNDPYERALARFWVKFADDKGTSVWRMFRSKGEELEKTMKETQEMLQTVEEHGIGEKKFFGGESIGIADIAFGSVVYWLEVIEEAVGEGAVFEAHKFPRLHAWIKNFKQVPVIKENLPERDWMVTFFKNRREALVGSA
# From the text: spectrophotometric GSH-CDNB conjugation, nonlinear regression on SbGSTU13
# SbGSTU3 = target: T4, SbGSTU3 (Salix babylonica, UniProt A0A4Y5R0K8)
# T4 construct: gene GSTU3; full length, 6xHis-tag (pET30a), E. coli BL21 (DE3), Ni-Sepharose
# T4 sequence (A0A4Y5R0K8 1-220): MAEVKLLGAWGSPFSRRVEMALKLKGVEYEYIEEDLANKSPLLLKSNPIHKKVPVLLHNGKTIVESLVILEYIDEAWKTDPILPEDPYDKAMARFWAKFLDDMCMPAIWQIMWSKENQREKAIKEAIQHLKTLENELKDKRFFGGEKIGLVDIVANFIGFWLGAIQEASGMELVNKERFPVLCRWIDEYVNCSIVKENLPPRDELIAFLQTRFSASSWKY
# From the text: spectrophotometric GSH-CDNB conjugation, nonlinear regression on SbGSTU3
# SbGSTU1 = target: T5, SbGSTU1 (Salix babylonica, UniProt A0A4Y5R2M7)
# T5 construct: gene GSTU1; full length, 6xHis-tag (pET30a), E. coli BL21 (DE3), Ni-Sepharose
# From the text: spectrophotometric GSH-CDNB conjugation, nonlinear regression on SbGSTU1
# SbGSTU7 = target: T6, SbGSTU7 (Salix babylonica, UniProt A0A4Y5R087)
# T6 construct: gene GSTU7; full length, 6xHis-tag (pET30a), E. coli BL21 (DE3), Ni-Sepharose
# From the text: spectrophotometric GSH-CDNB conjugation, nonlinear regression on SbGSTU7
# T6 sequence (A0A4Y5R087 1-219): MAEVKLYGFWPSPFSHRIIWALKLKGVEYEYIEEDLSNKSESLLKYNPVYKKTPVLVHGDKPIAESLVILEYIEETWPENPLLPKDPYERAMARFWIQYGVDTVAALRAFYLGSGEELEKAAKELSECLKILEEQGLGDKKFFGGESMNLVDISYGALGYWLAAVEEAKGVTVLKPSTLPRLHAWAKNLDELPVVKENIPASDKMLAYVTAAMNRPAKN
# T1 sequence (A0A4Y5R0C1 1-222): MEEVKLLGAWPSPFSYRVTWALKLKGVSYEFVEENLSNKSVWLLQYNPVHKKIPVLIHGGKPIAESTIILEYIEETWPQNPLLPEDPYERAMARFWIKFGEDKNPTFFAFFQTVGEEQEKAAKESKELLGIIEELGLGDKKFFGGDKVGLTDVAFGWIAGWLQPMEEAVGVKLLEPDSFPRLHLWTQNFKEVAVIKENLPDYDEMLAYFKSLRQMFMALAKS
# T5 sequence (A0A4Y5R2M7 1-219): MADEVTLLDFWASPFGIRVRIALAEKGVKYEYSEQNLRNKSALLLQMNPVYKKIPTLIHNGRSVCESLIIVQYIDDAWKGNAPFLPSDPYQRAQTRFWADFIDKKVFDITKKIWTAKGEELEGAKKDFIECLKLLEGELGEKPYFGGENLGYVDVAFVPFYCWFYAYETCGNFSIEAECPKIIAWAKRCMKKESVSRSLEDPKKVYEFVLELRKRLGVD
# T2 sequence (A0A4Y5QZX3 1-220): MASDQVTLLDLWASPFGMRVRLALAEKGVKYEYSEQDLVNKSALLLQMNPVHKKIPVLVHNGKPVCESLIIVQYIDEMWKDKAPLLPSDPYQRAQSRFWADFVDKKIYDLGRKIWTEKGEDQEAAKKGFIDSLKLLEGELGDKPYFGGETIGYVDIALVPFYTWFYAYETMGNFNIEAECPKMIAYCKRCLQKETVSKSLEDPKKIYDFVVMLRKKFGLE
smiles,measurement,setting,value
"O=[N+]([O-])c1ccc(Cl)c([N+](=O)[O-])c1 [CDNB, 1-chloro-2,4-dinitrobenzene]",Km,SbGSTU12,2140 ± 272 µM
same,Km,SbGSTU10,156 ± 2 µM
same,Km,SbGSTU13,1270 ± 62 µM
same,Km,SbGSTU3,1000 ± 33 µM
same,Km,SbGSTU1,201 ± 4 µM
same,Km,SbGSTU7,2070 ± 165 µM

# — PMC7145991, “Biochemical Functions of Glutathione S-Transferase Family of Salix babylonica” (Frontiers in Plant Science, 2020)
